Data: patent publication US10308916B2, “Omega-transaminase mutants with activity improvements toward ketones and methods for producing optically pure amines” (Industry-Academic Cooperation Foundation, Yonsei University, priority 2015, dated 2019)

Legend:
Assay type in all cases: biochemical
OATA W58M = conditions: pH 7
OATA L57Q/W58N/I261L = test system: OATA L57Q/W58N/I261L
OATA L57C/W58L/I261A = test system: OATA L57C/W58L/I261A
OATA W58L [1] = test system: OATA W58L
OATA W58V = conditions: pH 7
[2] = test system: OATA W58A, OATA W58M, OATA W58V and OATA W58I mutants
OATA W58A [3] = conditions: pH 7
OATA L57A/W58A = test system: OATA L57A/W58A
OATA W58A [4] = test system: OATA W58A
W58A mutant = test system: W58A mutant
OATA W58D/I261A = test system: OATA W58D/I261A
OATA W58I = conditions: pH 7
OATA L57A = test system: OATA L57A
OATA W58L [5] = conditions: pH 7
OATA L57A/W58A/V154A = test system: OATA L57A/W58A/V154A

## CC(=O)c1ccccc1 [Ketone 1a, acetophenone]
OATA W58M
  Relative activity to acetophenone, OATA W58M: 100%
OATA L57Q/W58N/I261L
  Relative activity, OATA L57Q/W58N/I261L: 2,500%
OATA L57C/W58L/I261A
  Relative activity, OATA L57C/W58L/I261A: 12,174%
OATA W58L [1]
  Fold-increase in kcat/KM: 340
  fold decrease in KM (tighter binding): 6.1
  fold increase in turnover number (kcat): 55.7
  kcat relative to kcat of the wild-type enzyme for pyruvate: up to 20%
OATA W58V
  Relative activity to acetophenone, OATA W58V: 100%
[2]
  fold increase in reactivity as compared to OATA WT: more than 40
OATA W58A [3]
  Relative activity to acetophenone, OATA W58A: 100%
OATA L57A/W58A
  Relative activity, OATA L57A/W58A: 716%
OATA W58A [4]
  Relative activity, OATA W58A: 1,206%^
W58A mutant
  fold increase in activity: 41
OATA W58D/I261A
  Relative activity, OATA W58D/I261A: 648%
OATA W58I
  Relative activity to acetophenone, OATA W58I: 100%
OATA L57A
  Relative activity, OATA L57A: 89%
OATA W58L [5]
  Relative activity to acetophenone, OATA W58L: 100%
OATA L57A/W58A/V154A
  Relative activity, OATA L57A/W58A/V154A: 637%
